In publication PMC12884754, “A GLUTAMATE CYSTEINE LIGASE Gene StGSH1 Regulated by StERF10 Enhanced Glutathione Accumulation and Adaptation to Low Phosphorus Stress in Potato” (Advanced Science, 2025):

How the values were obtained:
StGSH1 (dimer) = target: T1, StGSH1 (dimer) (Solanum tuberosum, UniProt M1AWB9); assay: coupled pyruvate kinase/lactate dehydrogenase assay of ADP formation, A340; format: biochemical; settings: standard reaction: pH 8.0, 100 mM Tris, 150 mM KCl, 20 mM MgCl2, 10 mM L-cysteine, 20 mM L-glutamate; homo-dimer; read-out: ATP
T1 construct: gene LOC102600891; pET32a, E. coli BL21(DE3); His tag removed by TEV; homodimer separated on Mono Q
T1 sequence (M1AWB9 74-523): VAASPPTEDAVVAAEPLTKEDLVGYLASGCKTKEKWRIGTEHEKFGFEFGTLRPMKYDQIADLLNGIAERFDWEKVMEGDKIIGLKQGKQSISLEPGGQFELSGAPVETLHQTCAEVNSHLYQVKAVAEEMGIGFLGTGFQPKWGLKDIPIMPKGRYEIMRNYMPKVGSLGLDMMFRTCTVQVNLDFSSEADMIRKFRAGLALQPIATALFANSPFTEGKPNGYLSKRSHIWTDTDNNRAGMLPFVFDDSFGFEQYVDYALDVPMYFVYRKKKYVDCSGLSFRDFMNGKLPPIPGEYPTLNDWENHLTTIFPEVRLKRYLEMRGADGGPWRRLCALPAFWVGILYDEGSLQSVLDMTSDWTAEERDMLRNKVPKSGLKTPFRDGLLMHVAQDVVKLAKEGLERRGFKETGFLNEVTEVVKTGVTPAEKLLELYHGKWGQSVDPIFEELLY
Description: coupled pyruvate kinase/lactate dehydrogenase assay of ADP formation, A340 on StGSH1 (dimer)

StGSH1 (monomer) = target: T2, StGSH1 (monomer) (Solanum tuberosum, UniProt M1AWB9); assay: as above; format: biochemical; settings: standard reaction: pH 8.0, 100 mM Tris, 150 mM KCl, 20 mM MgCl2, 10 mM L-cysteine, 20 mM L-glutamate, read-out: ATP
T2 construct: gene LOC102600891; pET32a, E. coli BL21(DE3); His tag removed by TEV; monomer separated on Mono Q
T2 sequence (M1AWB9 74-523): T1 sequence (M1AWB9 74-523)
Description: coupled pyruvate kinase/lactate dehydrogenase assay of ADP formation, A340 on StGSH1 (monomer)

Question: What does the source list for `Nc1ncnc2c1ncn2[C@@H]1O[C@H](COP(=O)(O)OP(=O)(O)OP(=O)(O)O)[C@@H](O)[C@H]1O` [ATP]?
Answer: Km (StGSH1 (dimer)): 1000 ± 300 µM; Km (StGSH1 (monomer)): 2410 ± 360 µM
